In patent US20030187076A1, “Non-steroidal analogs of 2-methoxyestradiol” (priority 2002, published 2003):

Experiments:
[1] = test system: chick embryo chorioallantoic membrane; test: chick embryo chorioallantoic membrane (CAM) assay; format: in vivo; conditions: 100 μg methylcellulose disk, after 48 hours
From the text: Anti-proliferative activity can be evaluated in situ by testing the ability of the new non-steroidal estradiol derivatives to inhibit the proliferation of new blood vessel cells (angiogenesis). A suitable assay is the chick embryo chorioallantoic membrane (CAM) assay described by Crum et al. Science 230:1375 (1985). See also, U.S. Pat. No. 5,001,116, hereby incorporated by reference, which describes the CAM assay. Briefly, fertilized chick embryos are removed from their shell on day 3 or 4, and a methylcellulose disc containing the drug is implanted on the chorioallantoic membrane. The embryos are examined 48 hours later and, if a clear avascular zone appears around the methylcellulose disc, the diameter of that zone is measured.

MCF-7 cell = test: estrogen dependent MCF-7 cell proliferation; format: cell-based; conditions: over a wide range of concentrations
From the text: 2-Methoxyestradiol is an endogenous, steroidal metabolite of estradiol (E2) that has potent anti-proliferative activity and induces apoptosis in a wide variety of tumor and non-tumor cell lines. […] What is needed is a series of compounds that constitute analogs of 2-methoxyestradiol which are non-steroidal in structure and which will have similar biological properties to 2-methoxyestradiol and that can be used in similar applications.

[2] = test system: vascular endothelial cell; conditions: endothelial versus tumor cell proliferation; cited from earlier work

Row | SMILES | inhibition of cell mitosis and growth of new blood vessels [1] | estrogenic activity (MCF-7 cell) | half-maximal inhibition of endothelial cell proliferation, concentration lower than for tumor cell proliferation [2]
1 | COc1cc2c(cc1O)CC[C@@H]1[C@@H]2CC[C@]2(C)[C@@H](O)CC[C@@H]12 [2-methoxyestradiol] | inhibit cell mitosis and the growth of new blood vessels | not estrogenic | 
2 | CO[C@@H]1[C@H](OC(=O)NC(=O)CCl)CC[C@]2(CO2)[C@H]1[C@@]1(C)O[C@@H]1CC=C(C)C [AGM-1470] |  |  | 4 logs
